Test: xn = mol fraction of the nth substance listed
Conditions: 101 kPa, Liquid

CCOCCCN [3-ethoxy-1-propanamine] + O
mass density [kg/m3]
Conditions	283.15 K	288.15 K	293.15 K
x1 = 0.000108	999.685	999.073	998.176
x1 = 0.000319	999.612	998.997	998.098
x1 = 0.000625	999.489	–	997.974
x1 = 0.000707	999.462	–	–
x1 = 0.000942	999.378	998.755	997.845
x1 = 0.001046	999.335	–	–
x1 = 0.001284	999.244	998.623	997.706
x1 = 0.001947	999.006	998.367	997.459
x1 = 0.002912	998.665	998.003	997.058
x1 = 0.00392	998.32	997.639	996.673
x1 = 0.005098	997.943	997.245	996.25
x1 = 0.007456	997.213	996.459	–
x1 = 0.00981	996.579	995.782	994.681
x1 = 0.0148	995.454	994.495	993.269
x1 = 0.01956	994.585	993.456	992.092
x1 = 0.02832	993.306	991.899	990.264
x1 = 0.03914	992.137	990.361	988.357
x1 = 0.05082	991.126	988.889	986.504
x1 = 0.06674	989.564	986.858	983.968
x1 = 0.09536	985.793	982.292	978.874
x1 = 0.1209	981.126	977.267	973.326
x1 = 0.1452	976.001	971.617	967.737
x1 = 0.1844	967.807	962.845	958.517
x1 = 0.2121	960.275	955.87	951.456
x1 = 0.2438	954.343	948.987	–
x1 = 0.2923	944.589	939.953	–
x1 = 0.361	932.627	926.801	–
x1 = 0.4369	921.019	916.153	–
x1 = 0.4937	911.932	907.295	–
x1 = 0.5513	904.655	900.039	–
x1 = 0.6214	896.914	892.186	–
x1 = 0.6775	891.266	886.402	–
x1 = 0.6943	889.59	884.998	–
x1 = 0.7458	884.839	880.089	–
x1 = 0.7733	882.976	–	–
x1 = 0.7947	880.664	875.868	–
x1 = 0.8276	878.228	873.43	–
x1 = 0.8488	876.201	871.511	–
x1 = 0.8744	874.608	–	–
x1 = 0.8993	872.317	867.858	–
x1 = 0.9189	871.084	866.306	–
x1 = 0.9349	–	864.955	–
x1 = 0.9411	869.403	–	–
x1 = 0.9436	–	864.338	–
x1 = 0.9486	868.869	–	–
x1 = 0.9601	868.041	863.267	–
x1 = 0.9755	–	862.192	–
x1 = 0.985	866.322	861.525	–
x1 = 1	865.36	860.63	–
